In patent publication US9415035B2, “Compositions containing omega-3 oil with an anti-inflammatory agent and uses thereof” (Maine Natural Health Company, Inc., priority 2010, dated 2016):

Test system: companion animals (cats and dogs)
Test: Companion animal mobility, further addition of glucosamine
Format: in vivo
Design: dose or concentration left out as unconfirmed
Conditions: glucosamine added to OmegaMaine omega-3 oil; data not shown
Experimental: Cats (n=5) were given 2.5 mL (½ teaspoon) of OmegaMaine liquid omega-3 oil by adding directly to their food. Dogs (n=5) were given 5 mL (1 teaspoon) of OmegaMaine omega-3 oil by adding directly to their food. For reference, 5 mL of OmegaMaine omega-3 oil contains, minimally, 800 mg of EPA, and, minimally, 750 mg of DHA. Animals were scored on a scale of 1 to 10, where 10 was behavior like a kitten or a puppy and 1 was severe immobility. All animals in the test group average 8 years of age. Animals were evaluated prior to treatment and 2 weeks after daily treatment with OmegaMaine omega-3 oil (Table 4).

N[C@H]1C(O)O[C@H](CO)[C@@H](O)[C@@H]1O (stereo partly shown) [glucosamine]
therapeutic benefit on mobility: additional therapeutic benefit
